“And” between values parts separate entries of the source, which are not always exact repeats. Equal entries are not always repeated. Where two headings read alike, the source gives them in different places.
Assays:
[1] = system: Puccinia recondita f. sp. tritici; experiment: Puccinia recondita f. sp. tritici / wheat / leaf disc curative (brown rust); assay type: in vivo; settings: foliar, vs untreated control
Procedure: Leaf disks or leaf segments of various plant species are cut from plants grown in a greenhouse. The cut leaf disks or segments are placed in multiwell plates (24-well format) onto water agar. The leaf disks are sprayed with a test solution before (preventative) or after (curative) inoculation. […] The inoculated leaf disks or segments are incubated under defined conditions (temperature, relative humidity, light, etc.) according to the respective test system. […] Percent disease control relative to the untreated check leaf disks or segments is then calculated. Wheat leaf segments cv. Kanzler are placed on agar in multiwell plates (24-well format). The leaf segments are inoculated with a spore suspension of the fungus. […] The formulated test compound diluted in water is applied 1 day after inoculation.

[2] = system: Glomerella lagenarium (Colletotrichum lagenarium); experiment: Glomerella lagenarium (Colletotrichum lagenarium) liquid culture / cucumber / preventative (anthracnose); assay type: cell-based; settings: Colletotrichum orbiculare, vs untreated control
Procedure: Mycelia fragments or conidia suspensions of a fungus prepared either freshly from liquid cultures of the fungus or from cryogenic storage, are directly mixed into nutrient broth. DMSO solutions of the test compound (max. 10 mg/mL) are diluted with 0.025% Tween20 by a factor of 50 and 10 μl of this solution is pipetted into a microtiter plate (96-well format). The nutrient broth containing the fungal spores/mycelia fragments is then added to give an end concentration of the tested compound. The test plates are incubated in the dark at 24° C. and 96% relative humidity. The inhibition of fungal growth is determined photometrically after 2 to 7 days, depending on the pathosystem, and percent antifungal activity relative to the untreated check is calculated.
Conidia of the fungus from cryogenic storage are directly mixed into nutrient broth (PDB potato dextrose broth). After placing a (DMSO) solution of test compound into a microtiter plate (96-well format), the nutrient broth containing the fungal spores is added.

[3] = system: Phakopsora pachyrhizi; experiment: Phakopsora pachyrhizi / soybean / leaf disc preventative (Asian soybean rust); assay type: in vivo; settings: foliar, 288 h, vs untreated control
Procedure: (§1) Leaf disks or leaf segments of various plant species are cut from plants grown in a greenhouse. The cut leaf disks or segments are placed in multiwell plates (24-well format) onto water agar. The leaf disks are sprayed with a test solution before (preventative) or after (curative) inoculation. Compounds to be tested are prepared as DMSO solutions (max. 10 mg/mL) which are diluted to the appropriate concentration with 0.025% Tween20 just before spraying. The inoculated leaf disks or segments are incubated under defined conditions (temperature, relative humidity, light, etc.) according to the respective test system. A single evaluation of disease level is carried out 3 to 14 days after inoculation, depending on the pathosystem. Percent disease control relative to the untreated check leaf disks or segments is then calculated.
Soybean leaf disks are placed on agar in multiwell plates (24-well format) and sprayed with test solutions. After drying, the leaf disks are inoculated with a spore suspension of the fungus. After appropriate incubation the activity of a compound is assessed approx.12 dpi (days after inoculation) as preventive fungicidal activity.

[4] = system: Puccinia recondita f. sp. tritici; experiment: Puccinia recondita f. sp. tritici / wheat / leaf disc preventative (brown rust); assay type: in vivo; settings: foliar, vs untreated control
Procedure: as §1
Wheat leaf segments cv. Kanzler are placed on agar in multiwell plates (24-well format) and sprayed with the formulated test compound diluted in water. The leaf disks are inoculated with a spore suspension of the fungus 1 day after application. The inoculated leaf segments are incubated at 19° C. and 75% rh under a light regime of 12 h light/12 h darkness in a climate cabinet and the activity of a compound is assessed as percent disease control compared to untreated when an appropriate level of disease damage appears in untreated check leaf segments (7-9 days after application).

[5] = system: Mycosphaerella arachidis syn. Cercospora arachidicola; experiment: Example B4: mixtures, preventative activity against Mycosphaerella arachidis syn. Cercospora arachidicola (brown leaf spot of peanut), liquid culture; assay type: cell-based; settings: Mycosphaerella arachidis, component A alone
Source text: (§2) This occurs whenever the action of an active ingredient combination is greater than the sum of the actions of the individual components. The action to be expected E for a given active ingredient combination obeys the so-called COLBY formula and can be calculated as follows (COLBY, S. R. “Calculating synergistic and antagonistic responses of herbicide combination”. Weeds, Vol. 15, pages 20-22; 1967):
(§3) If the action actually observed (O) is greater than the expected action (E), then the action of the combination is super-additive, i.e. there is a synergistic effect. In mathematical terms, synergism corresponds to a positive value for the difference of (O-E). In the case of purely complementary addition of activities (expected activity), said difference (O-E) is zero. A negative value of said difference (O-E) signals a loss of activity compared to the expected activity.
(§4) Conidia of the fungus from cryogenic storage were directly mixed into nutrient broth (PDB potato dextrose broth). A DMSO solution of the test compounds was placed into a microtiter plate (96-well format) and the nutrient broth containing the fungal spores was added to it.
Cercospora arachidicola (Brown leaf spot of peanut). Fungicidal activity was evaluated on a 100-0 scale (100=no disease growth; 0=well completely covered by mycelium).

[6] = system: Septoria glycines; experiment: Example B2: mixtures, preventative activity against Septoria glycines (brown spot), liquid culture; assay type: cell-based; settings: Septoria glycines, component A alone
Source text: as §2, §3
as §4, with “fungus harvested” for “fungus”, “a fresh culture grown on artificial media,” for “cryogenic storage”
(§5) Fungicidal activity was evaluated on a 100-0 scale (100=no disease growth; 0=well completely covered by mycelium).

[7] = system: Septoria tritici; experiment: Example B3: mixtures, preventative activity against Septoria tritici (leaf blotch), liquid culture; assay type: cell-based; settings: component A alone
Source text: as §2, §3, §4, §5

[8] = system: Phakopsora pachyrhizi; experiment: Example B5: preventative activity against Phakopsora pachyrhizi (soybean rust), whole soybean plants sprayed, leaf disks inoculated; assay type: in vivo; settings: applied alone
Procedure: Whole soybean plants are treated with the recited active ingredients 4 weeks after planting. 1 day after spraying leaf disks are cut from the first trifoliate leaf. Five repetitions at each rate are conducted. The leaf disks are inoculated with Phakopsora pachyrhizi (Asian soybean rust) one day after treatment.
Evaluation of the leaf disks is conducted 11 to 14 days after inoculation and the activity is derived from the relation of the treated vs untreated, infested check (100=no disease, no damage to the leaf, 0=high infestation, leaf damaged heavily). The rates of the active ingredients used are given in the tables as g active ingredient (a.i.)/ha.

[9] = system: Glomerella lagenarium syn. Colletotrichum lagenarium; experiment: Example B1: mixtures, preventative activity against Glomerella lagenarium syn. Colletotrichum lagenarium, liquid culture; assay type: cell-based; settings: Colletotrichum orbiculare, component A alone
Source text: as §2, §3, §4, §5

[10] = Phakopsora pachyrhizi, foliar, read-out: Observed Activity (%) (% of untreated) against Phakopsora pachyrhizi
[11] = Phakopsora pachyrhizi, foliar, 4.5 g/ha, read-out: Observed Activity (%) (% of untreated) against Phakopsora pachyrhizi
[12] = 0.1 ppm, read-out: Activity (%) A

Row | SMILES | pest or weed control at 200 ppm [1] | inhibition of growth at 6.7 ppm [2] | pest or weed control at 67 ppm [3] | pest or weed control at 200 ppm [4] | melting point | also measured
1 | CO/C=C(\Oc1cc(-n2ncc(C3CC3)n2)ccc1C)C(=O)OC [X.11, methyl (Z)-2-[5-(4-cyclopropyltriazol-2-yl)-2-methyl-phenoxy]-3-methoxy-prop-2-enoate] | ≥ 80% | ≥ 80% | ≥ 80% | ≥ 80% |  | 
2 | CO/C=C(\Oc1cc(-n2ccc(OC(C)C)n2)ccc1C)C(=O)OC [X.03, methyl (Z)-2-[5-(3-isopropoxypyrazol-1-yl)-2-methyl-phenoxy]-3-methoxy-prop-2-enoate] | ≥ 80% | ≥ 80% | ≥ 80% | ≥ 80% | 94 to 97 °C | 
3 | CCC(C)c1ccn(-c2ccc(C)c(O/C(=C\OC)C(=O)OC)c2)n1 (stereo not shown) [X.02, methyl (Z)-3-methoxy-2-[2-methyl-5-(3-sec-butylpyrazol-1-yl)phenoxy]prop-2-enoate] |  | ≥ 80% | ≥ 80% | ≥ 80% | 110 to 113 °C | 
4 | CCCc1cnn(-c2ccc(C)c(O/C(=C\OC)C(=O)OC)c2)n1 [X.09, methyl (Z)-3-methoxy-2-[2-methyl-5-(4-propyltriazol-2-yl)phenoxy]prop-2-enoate] | ≥ 80% | ≥ 80% | ≥ 80% | ≥ 80% |  | inhibition at 0.0025 ppm ([5]; 0.0025 ppm): 50%; inhibition at 0.005 ppm ([5]; 0.005 ppm): 90%; inhibition at 0.0025 ppm ([6]; 0.0025 ppm): 70%; inhibition at 0.005 ppm ([6]; 0.005 ppm): 90%; inhibition at 0.0025 ppm ([7]; Zymoseptoria tritici, 72 h, 0.0025 ppm): 70%; inhibition at 0.005 ppm ([7]; Zymoseptoria tritici, 72 h, 0.005 ppm): 90%; inhibition at 2.25 g/ha [8, 10]: 34%; inhibition at 4.5 g/ha ([8]; Phakopsora pachyrhizi, foliar, 4.5 g/ha, read-out: Observed Activity (% of untreated) against Phakopsora pachyrhizi): 94%; inhibition at 4.5 g/ha [8, 11]: 95%; inhibition at 9 g/ha ([8]; Phakopsora pachyrhizi, foliar, 9 g/ha, read-out: Observed Activity (% of untreated) against Phakopsora pachyrhizi): 97%; inhibition at 18 g/ha ([8]; Phakopsora pachyrhizi, foliar, 18 g/ha, read-out: Observed Activity (% of untreated) against Phakopsora pachyrhizi): 97%; Observed Activity (% of untreated) against Phakopsora pachyrhizi ([8]; 4.5 g/ha): 93% and 81% and 82%
5 | CO/C=C(\Oc1cc(-n2ccc(CC(C)C)n2)ccc1C)C(=O)OC [X.05, methyl (Z)-2-[5-(3-isobutylpyrazol-1-yl)-2-methyl-phenoxy]-3-methoxy-prop-2-enoate] | ≥ 80% | ≥ 80% | ≥ 80% | ≥ 80% | 76 to 80 °C | 
6 | CO/C=C(\Oc1cc(-n2ccc(C(F)(F)F)n2)ccc1C)C(=O)OC [X.08, methyl (Z)-3-methoxy-2-[2-methyl-5-[3-(trifluoromethyl)pyrazol-1-yl]phenoxy]prop-2-enoate] |  | ≥ 80% | ≥ 80% | ≥ 80% | 154 to 156 °C | inhibition at 0.03 ppm ([9]; 0.03 ppm): 0%; inhibition at 0.1 ppm [9, 12]: 0%; inhibition at 0.00625 ppm ([5]; 0.00625 ppm): 0%; inhibition at 0.025 ppm ([5]; 0.025 ppm): 70%; inhibition at 0.03 ppm ([5]; 0.03 ppm): 70%; inhibition at 0.00625 ppm ([6]; 0.00625 ppm): 0%; inhibition at 0.025 ppm ([6]; 0.025 ppm): 70%; inhibition at 0.03 ppm ([6]; 0.03 ppm, read-out: Activity (%) A): 70%; inhibition at 0.05 ppm ([6]; 0.05 ppm): 90%; inhibition at 0.1 ppm [6, 12]: 70%; inhibition at 0.00625 ppm ([7]; Zymoseptoria tritici, 0.00625 ppm, 100-0 scale): 0%; inhibition at 0.025 ppm ([7]; Zymoseptoria tritici, 0.025 ppm, 100-0 scale): 70%; inhibition at 0.03 ppm ([7]; Zymoseptoria tritici, 0.03 ppm, 100-0 scale, read-out: Activity (%) A): 50%; inhibition at 0.1 ppm ([7]; Zymoseptoria tritici, 0.1 ppm, 100-0 scale, read-out: Activity (%) A): 70%; Activity (%) A ([7]; 0.025 ppm, 100-0 scale): 90%; inhibition at 2.25 g/ha [8, 10]: 1%; inhibition at 4.5 g/ha [8, 11]: 10%; Observed Activity (% of untreated) against Phakopsora pachyrhizi ([8]; 18 g/ha): 38% and 77%
7 | CO/C=C(\Oc1cc(-n2ccc(C3CC3)n2)ccc1C)C(=O)OC [X.07, methyl (Z)-2-[5-(3-cyclopropylpyrazol-1-yl)-2-methyl-phenoxy]-3-methoxy-prop-2-enoate] | ≥ 80% | ≥ 80% | ≥ 80% | ≥ 80% | 115 to 118 °C | 
8 | CO/C=C(\Oc1cc(-n2ccc(C3CCC3)n2)ccc1C)C(=O)OC [X.04, methyl (Z)-2-[5-(3-cyclobutylpyrazol-1-yl)-2-methyl-phenoxy]-3-methoxy-prop-2-enoate] | ≥ 80% | ≥ 80% | ≥ 80% | ≥ 80% | 91 to 94 °C | 
9 | CO/C=C(\Oc1cc(-n2ncc(C(C)C)n2)ccc1C)C(=O)OC [X.12, methyl (Z)-2-[5-(4-isopropyltriazol-2-yl)-2-methyl-phenoxy]-3-methoxy-prop-2-enoate] | ≥ 80% | ≥ 80% | ≥ 80% | ≥ 80% |  | 

Source: patent publication US20230131427A1, “FUNGICIDAL COMPOSITIONS” (SYNGENTA CROP PROTECTION AG, priority 2020, published 2023)
